Measured values published in ChEMBL document CHEMBL3885861, “Open TG-GATES”.

Species on record: Rattus norvegicus
Test: Open TG-GATES - Regimen: Single
Assay type: toxicity, organism-based, Sprague-Dawley
Parameters: regimen Single, gender Male, age 6 weeks
Conditions: in vivo, iv, 0 mg/kg, route intravenous injection, dose level Control; for Bas / Eos / Fbg / Ht / Lym / MCH / MCHC / MCV / Mono / PT / Plat / RBC / Ret / Neu: tissue Blood; for KIDNEY_L / KIDNEY_R / KIDNEY_TOTAL: tissue Kidney; for LIVER: tissue Liver

## COc1cccc2c1C(=O)c1c(O)c3c(c(O)c1C2=O)C[C@@](O)(C(=O)CO)C[C@@H]3O[C@H]1C[C@H](N)[C@H](O)[C@H](C)O1 [DOXORUBICIN]
3 h
  TERMINAL_BW: 210.4 g
  Bas: 0%
  Eos: 0.8%
  Fbg: 277.8 mg/dL
  Ht: 39.4%
  Lym: 84.4%
  MCH: 22 pg
  MCHC: 34.9%
  MCV: 63.1 fL
  Mono: 2.6%
  PT: 16.3 s
  Plat: 122.6 x10_4/uL
  RBC: 625 x10_4/ul
  Ret: 6.3%
  KIDNEY_L: 0.9 g
  KIDNEY_R: 0.9 g
  KIDNEY_TOTAL: 1.8 g
  LIVER: 9.4 g
3 h, tissue Plasma
  ALP: 1425.2 IU/L
  ALT: 43.6 IU/L
  AST: 77 IU/L
  CRE: 0.2 mg/dL
  DBIL: 0 mg/dL
  GLC: 181.8 mg/dL
  K: 4.5 meq/L
  LDH: 185.6 IU/L
  Na: 142.2 meq/L
  RALB: 3 g/dL
  TBIL: 0.008 mg/dL
  TC: 77.6 mg/dL
  TG: 87.2 mg/dL
  TP: 5.2 g/dL
  gamma-GTP: 1.2 IU/L
6 h
  TERMINAL_BW: 211.5 g
  Bas: 0%
  Eos: 0.8%
  Fbg: 292.4 mg/dL
  Ht: 38.3%
  Lym: 76%
  MCH: 21.5 pg
  MCHC: 34.4%
  MCV: 62.4 fL
  Mono: 2.8%
  Neu: 19.2%
  PT: 16.3 s
  Plat: 127.3 x10_4/uL
  RBC: 614.6 x10_4/ul
  Ret: 6.9%
  KIDNEY_L: 0.9 g
  KIDNEY_R: 0.9 g
  KIDNEY_TOTAL: 1.8 g
  LIVER: 8.9 g
6 h, tissue Plasma
  ALP: 1252 IU/L
  ALT: 46.6 IU/L
  AST: 90.2 IU/L
  CRE: 0.2 mg/dL
  DBIL: 0.004 mg/dL
  GLC: 172.2 mg/dL
  K: 4.3 meq/L
  Na: 140.6 meq/L
  RALB: 2.9 g/dL
  TBIL: 0.026 mg/dL
  TC: 71.8 mg/dL
  TG: 63 mg/dL
  TP: 5.1 g/dL
  gamma-GTP: 1.6 IU/L
9 h
  TERMINAL_BW: 208 g
  Bas: 0%
  Eos: 0.6%
  Fbg: 298.2 mg/dL
  Ht: 38.9%
  Lym: 77.8%
  MCH: 21.6 pg
  MCHC: 34.2%
  MCV: 63.2 fL
  Mono: 2.8%
  PT: 16.4 s
  Plat: 116.3 x10_4/uL
  RBC: 615.4 x10_4/ul
  Ret: 6.5%
  KIDNEY_L: 0.9 g
  KIDNEY_R: 1 g
  KIDNEY_TOTAL: 1.9 g
  LIVER: 8.6 g
9 h, tissue Plasma
  ALP: 1422.6 IU/L
  ALT: 39.8 IU/L
  AST: 77.6 IU/L
  CRE: 0.2 mg/dL
  DBIL: 0 mg/dL
  GLC: 201.8 mg/dL
  K: 4.3 meq/L
  Na: 140.2 meq/L
  RALB: 2.9 g/dL
  TBIL: 0.01 mg/dL
  TC: 63 mg/dL
  TG: 65.6 mg/dL
  TP: 5.3 g/dL
  gamma-GTP: 1.4 IU/L
24 h
  TERMINAL_BW: 223.8 g
  Bas: 0%
  Eos: 1%
  Fbg: 298 mg/dL
  Ht: 37.5%
  Lym: 77.6%
  MCH: 22.4 pg
  MCHC: 36%
  MCV: 62.2 fL
  Mono: 4%
  Neu: 16.4%
  PT: 16.4 s
  Plat: 117.3 x10_4/uL
  RBC: 602.6 x10_4/ul
  Ret: 7%
  KIDNEY_L: 0.9 g
  KIDNEY_R: 1 g
  KIDNEY_TOTAL: 1.9 g
24 h, tissue Plasma
  ALP: 1402 IU/L
  ALT: 41 IU/L
  AST: 68 IU/L
  CRE: 0.2 mg/dL
  DBIL: 0.002 mg/dL
  GLC: 191.2 mg/dL
  K: 4.5 meq/L
  Na: 141.6 meq/L
  RALB: 3.1 g/dL
  TBIL: 0.014 mg/dL
  TC: 77.6 mg/dL
  TG: 113 mg/dL
  TP: 5.5 g/dL
  gamma-GTP: 1.4 IU/L
